Data from article PMC5007552, “The hVps34‐SGK3 pathway alleviates sustained PI3K/Akt inhibition by stimulating mTORC1 and tumour growth” (The EMBO Journal, 2016).
Where “and” joins values, the source holds several entries; their conditions need not be identical. Identical values can stand only once.

Tested on: ZR-75-1 cells
Test: NanoString human kinome mRNA quantification
Format: cell-based
Text: Human mRNAs were hybridised to NanoString human kinome and control code sets, then subjected to quantification using NanoString software. […] To permit data compaction, and simple kinome‐wide comparisons, the fold changes are log2 transformed. […] Cell pellets were resuspended at a concentration of ~6,500 cells/μl in RLT buffer (Qiagen). […] For total copy numbers, triplicate normalised count values were averaged, and to calculate fold induction, means were divided by triplicate mean values from matched DMSO controls. P‐values were calculated using unpaired t‐test (GraphPad Prism software) by employing treated and control count data for each kinase mRNA.

Question: With `NC1(c2ccc(-c3nc4ccn5c(=O)[nH]nc5c4cc3-c3ccccc3)cc2)CCC1` [MK-2206] as the compound, how does the “rank of SGK3 mRNA expression in the 536-member kinase panel” value (1 μM, day 5, ZR-75-1, DMSO control 230th) read?
Answer: The value was 94.

Question: And the “AAK1 Average normalised counts” value (AAK1 mRNA, average of 3 replicates)?
Answer: Its value is 782.49.

Question: And the “AAK1 Normalised counts” value (AAK1 mRNA, single replicates)?
Answer: Its value is 765.01 and 806.95 and 775.51.

Question: What about the “AATK Average normalised counts” value (AATK mRNA, average of 3 replicates) of the same compound?
Answer: The value was 168.267.

Question: And the “AATK Normalised counts” value (AATK mRNA, single replicates)?
Answer: The value was 168.73 and 152.79 and 183.28.

Question: What about the “ABL1 Average normalised counts” value (ABL1 mRNA, average of 3 replicates) of the same compound?
Answer: The value was 597.787.

Question: And the “ABL1 Normalised counts” value (ABL1 mRNA, single replicates)?
Answer: Its value is 594.12 and 597.59 and 601.65.

Question: What about the “ABL2 Average normalised counts” value (ABL2 mRNA, average of 3 replicates) of the same compound?
Answer: The value was 904.847.

Question: And the “ABL2 Normalised counts” value (ABL2 mRNA, single replicates)?
Answer: Its value is 861.36 and 926.84 and 926.34.

Question: And the “ACVR1B Normalised counts” value (ACVR1B mRNA, single replicates)?
Answer: The value was 285.69.

Question: And the “ACVR1C Average normalised counts” value (ACVR1C mRNA, average of 3 replicates)?
Answer: The value was 2.92.

Question: What about the “ACVR1C Normalised counts” value (ACVR1C mRNA, single replicates) of the same compound?
Answer: The value was 2.39 and 2.5 and 3.87.

Question: And the “ACVR1 Normalised counts” value (ACVR1 mRNA, single replicates)?
Answer: Its value is 276.15 and 273.79.

Question: What about the “ACVR2A Average normalised counts” value (ACVR2A mRNA, average of 3 replicates) of the same compound?
Answer: Its value is 137.863.

Question: What about the “ACVR2A Normalised counts” value (ACVR2A mRNA, single replicates) of the same compound?
Answer: Its value is 146 and 131.94 and 135.65.

Question: What about the “ACVR2B Average normalised counts” value (ACVR2B mRNA, average of 3 replicates) of the same compound?
Answer: The value was 119.837.

Question: And the “ACVR2B Normalised counts” value (ACVR2B mRNA, single replicates)?
Answer: Its value is 122.37 and 110.22 and 126.92.

Question: What about the “ACVRL1 Average normalised counts” value (ACVRL1 mRNA, average of 3 replicates) of the same compound?
Answer: Its value is 5.713.

Question: And the “ACVRL1 Normalised counts” value (ACVRL1 mRNA, single replicates)?
Answer: Its value is 4.2 and 5.1 and 7.84.

Question: And the “ADCK1 Average normalised counts” value (ADCK1 mRNA, average of 3 replicates)?
Answer: The value was 103.98.

Question: And the “ADCK1 Normalised counts” value (ADCK1 mRNA, single replicates)?
Answer: The value was 96.01 and 112.83 and 103.1.

Question: What about the “ADCK2 Average normalised counts” value (ADCK2 mRNA, average of 3 replicates) of the same compound?
Answer: The value was 571.397.

Question: And the “ADCK2 Normalised counts” value (ADCK2 mRNA, single replicates)?
Answer: The value was 535.04 and 567.18 and 611.97.

Question: What about the “ADCK3 Average normalised counts” value (ADCK3 mRNA, average of 3 replicates) of the same compound?
Answer: Its value is 173.12.

Question: What about the “ADCK3 Normalised counts” value (ADCK3 mRNA, single replicates) of the same compound?
Answer: The value was 181.45 and 164.95 and 172.96.

Question: What about the “ADCK4 Average normalised counts” value (ADCK4 mRNA, average of 3 replicates) of the same compound?
Answer: The value was 488.637.

Question: And the “ADCK4 Normalised counts” value (ADCK4 mRNA, single replicates)?
Answer: Its value is 486.86 and 483.78 and 495.27.

Question: What about the “ADCK5 Average normalised counts” value (ADCK5 mRNA, average of 3 replicates) of the same compound?
Answer: Its value is 272.407.

Question: What about the “ADCK5 Normalised counts” value (ADCK5 mRNA, single replicates) of the same compound?
Answer: Its value is 276.89 and 275.28.

Question: What about the “ADRBK1 Average normalised counts” value (ADRBK1 mRNA, average of 3 replicates) of the same compound?
Answer: The value was 4377.38.

Question: And the “ADRBK1 Normalised counts” value (ADRBK1 mRNA, single replicates)?
Answer: The value was 4312.7 and 4473.91 and 4345.53.

Question: And the “ADRBK2 Average normalised counts” value (ADRBK2 mRNA, average of 3 replicates)?
Answer: Its value is 361.227.

Question: What about the “ADRBK2 Normalised counts” value (ADRBK2 mRNA, single replicates) of the same compound?
Answer: The value was 361.43 and 359.55 and 362.7.

Question: What about the “AKT1 Average normalised counts” value (AKT1 mRNA, average of 3 replicates) of the same compound?
Answer: The value was 6880.64.

Question: And the “AKT1 Normalised counts” value (AKT1 mRNA, single replicates)?
Answer: The value was 6785.99 and 6852.52 and 7003.4.

Question: And the “AKT2 Average normalised counts” value (AKT2 mRNA, average of 3 replicates)?
Answer: Its value is 2329.47.

Question: What about the “AKT2 Normalised counts” value (AKT2 mRNA, single replicates) of the same compound?
Answer: Its value is 2337.52 and 2309.87 and 2341.02.

Question: And the “AKT3 Average normalised counts” value (AKT3 mRNA, average of 3 replicates)?
Answer: Its value is 1.89.

Question: What about the “AKT3 Normalised counts” value (AKT3 mRNA, single replicates) of the same compound?
Answer: The value was 2.39 and 1 and 2.28.

Question: What about the “ALK Average normalised counts” value (ALK mRNA, average of 3 replicates) of the same compound?
Answer: The value was 1.

Question: What about the “ALK Normalised counts” value (ALK mRNA, single replicates) of the same compound?
Answer: Its value is 1.

Question: What about the “ALPK2 Average normalised counts” value (ALPK2 mRNA, average of 3 replicates) of the same compound?
Answer: The value was 16.6133.

Question: What about the “ALPK2 Normalised counts” value (ALPK2 mRNA, single replicates) of the same compound?
Answer: The value was 12.38 and 22.48 and 14.98.

Question: What about the “ALPK3 Average normalised counts” value (ALPK3 mRNA, average of 3 replicates) of the same compound?
Answer: Its value is 74.1967.

Question: And the “ALPK3 Normalised counts” value (ALPK3 mRNA, single replicates)?
Answer: Its value is 85.1 and 68.52 and 68.97.

Question: And the “AMHR2 Average normalised counts” value (AMHR2 mRNA, average of 3 replicates)?
Answer: The value was 1.

Question: What about the “AMHR2 Normalised counts” value (AMHR2 mRNA, single replicates) of the same compound?
Answer: The value was 1.

Question: What about the “ANKK1 Average normalised counts” value (ANKK1 mRNA, average of 3 replicates) of the same compound?
Answer: The value was 2.167.

Question: What about the “ANKK1 Normalised counts” value (ANKK1 mRNA, single replicates) of the same compound?
Answer: The value was 1 and 1.63 and 3.87.

Question: And the “ARAF Average normalised counts” value (ARAF mRNA, average of 3 replicates)?
Answer: The value was 918.807.

Question: What about the “ARAF Normalised counts” value (ARAF mRNA, single replicates) of the same compound?
Answer: Its value is 894.08 and 950.29 and 912.05.

Question: What about the “ATM Average normalised counts” value (ATM mRNA, average of 3 replicates) of the same compound?
Answer: Its value is 3.063.

Question: What about the “ATM Normalised counts” value (ATM mRNA, single replicates) of the same compound?
Answer: The value was 5.11 and 1 and 3.08.

Question: And the “ATR Average normalised counts” value (ATR mRNA, average of 3 replicates)?
Answer: Its value is 668.797.

Question: What about the “ATR Normalised counts” value (ATR mRNA, single replicates) of the same compound?
Answer: Its value is 672.29 and 661 and 673.1.

Question: And the “AURKA Average normalised counts” value (AURKA mRNA, average of 3 replicates)?
Answer: Its value is 948.07.

Question: What about the “AURKA Normalised counts” value (AURKA mRNA, single replicates) of the same compound?
Answer: Its value is 903.17 and 1006.76 and 934.28.

Question: And the “AURKB Average normalised counts” value (AURKB mRNA, average of 3 replicates)?
Answer: The value was 1225.21.

Question: What about the “AURKB Normalised counts” value (AURKB mRNA, single replicates) of the same compound?
Answer: The value was 1232.22 and 1235.24 and 1208.17.

Question: What about the “AURKC Average normalised counts” value (AURKC mRNA, average of 3 replicates) of the same compound?
Answer: The value was 8.06.

Question: And the “AURKC Normalised counts” value (AURKC mRNA, single replicates)?
Answer: Its value is 7.84 and 7.71 and 8.63.

Question: What about the “AXL Average normalised counts” value (AXL mRNA, average of 3 replicates) of the same compound?
Answer: Its value is 5.22.

Question: And the “AXL Normalised counts” value (AXL mRNA, single replicates)?
Answer: The value was 3.29 and 7.71 and 4.66.

Question: And the “BCKDK Average normalised counts” value (BCKDK mRNA, average of 3 replicates)?
Answer: Its value is 3561.04.

Question: What about the “BCKDK Normalised counts” value (BCKDK mRNA, single replicates) of the same compound?
Answer: The value was 3631.88 and 3513.08 and 3538.17.

Question: And the “BCR Average normalised counts” value (BCR mRNA, average of 3 replicates)?
Answer: Its value is 1460.29.

Question: And the “BCR Normalised counts” value (BCR mRNA, single replicates)?
Answer: Its value is 1503.09 and 1393.35 and 1484.43.

Question: And the “BLK Average normalised counts” value (BLK mRNA, average of 3 replicates)?
Answer: The value was 26.4533.

Question: And the “BLK Normalised counts” value (BLK mRNA, single replicates)?
Answer: Its value is 26.93 and 30.3 and 22.13.

Question: And the “BMP2K Average normalised counts” value (BMP2K mRNA, average of 3 replicates)?
Answer: Its value is 406.717.

Question: What about the “BMP2K Normalised counts” value (BMP2K mRNA, single replicates) of the same compound?
Answer: The value was 374.15 and 422.97 and 423.03.

Question: And the “BMPR1A Average normalised counts” value (BMPR1A mRNA, average of 3 replicates)?
Answer: Its value is 4758.43.

Question: And the “BMPR1A Normalised counts” value (BMPR1A mRNA, single replicates)?
Answer: Its value is 4812.63 and 4697.18 and 4765.49.

Question: And the “BMPR1B Average normalised counts” value (BMPR1B mRNA, average of 3 replicates)?
Answer: Its value is 1516.82.

Question: What about the “BMPR1B Normalised counts” value (BMPR1B mRNA, single replicates) of the same compound?
Answer: The value was 1517.63 and 1515.84 and 1516.98.

Question: What about the “BMPR2 Average normalised counts” value (BMPR2 mRNA, average of 3 replicates) of the same compound?
Answer: The value was 568.93.

Question: And the “BMPR2 Normalised counts” value (BMPR2 mRNA, single replicates)?
Answer: The value was 569.58 and 587.16 and 550.05.

Question: What about the “BMX Average normalised counts” value (BMX mRNA, average of 3 replicates) of the same compound?
Answer: The value was 1.

Question: What about the “BMX Normalised counts” value (BMX mRNA, single replicates) of the same compound?
Answer: Its value is 1.

Question: And the “BRAF Average normalised counts” value (BRAF mRNA, average of 3 replicates)?
Answer: The value was 627.873.

Question: What about the “BRAF Normalised counts” value (BRAF mRNA, single replicates) of the same compound?
Answer: Its value is 623.21 and 634.94 and 625.47.

Question: And the “BRD2 Average normalised counts” value (BRD2 mRNA, average of 3 replicates)?
Answer: The value was 2991.5.

Question: What about the “BRD2 Normalised counts” value (BRD2 mRNA, single replicates) of the same compound?
Answer: Its value is 2957.43 and 3009.21 and 3007.86.

Question: What about the “BRD3 Average normalised counts” value (BRD3 mRNA, average of 3 replicates) of the same compound?
Answer: Its value is 697.943.

Question: What about the “BRD3 Normalised counts” value (BRD3 mRNA, single replicates) of the same compound?
Answer: Its value is 683.2 and 692.28 and 718.35.

Question: And the “BRD4 Average normalised counts” value (BRD4 mRNA, average of 3 replicates)?
Answer: The value was 2588.8.
